Test results as given in patent US6737383B1, “Herbicidal oxadiazolidines” (priority 1999, dated 2004).

What was measured:
[1] = tested on: bedstraw; experiment: Test B pre/postemergence bedstraw; format: in vivo, Galium aparine; conditions: Postemergence; for Plant response rating, Bedstraw: scale 0 to 10, 0 is no effect, 10 is complete control; for Bedstraw plant response rating: scale of 0 to 10 where 0 is no effect and 10 is complete control
Method in brief: (§1)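 Response is a visual 0-to-10 score relative to untreated plants, where 0 means no effect and 10 means complete control, taken twelve to sixteen days after application. Treatments went onto soil at planting and onto foliage of 1- to 4-leaf plants, using a surfactant-containing non-phytotoxic solvent.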

[2] = tested on: blackgrass; experiment: Test B pre/postemergence blackgrass; format: in vivo, Alopecurus myosuroides
Method in brief: as §1

[3] = tested on: surinam grass; experiment: Test B pre/postemergence surinam grass; format: in vivo, Brachiaria decumbens
Method in brief: as §1

[4] = tested on: cocklebur; experiment: Test B pre/postemergence cocklebur; format: in vivo, Xanthium strumarium
Method in brief: as §1

[5] = tested on: corn; experiment: Test B pre/postemergence corn; format: in vivo, Zea mays
Method in brief: as §1

[6] = tested on: crabgrass; experiment: Test B pre/postemergence crabgrass; format: in vivo, Digitaria sanguinalis
Method in brief: as §1

[7] = tested on: giant foxtail; experiment: Test B pre/postemergence giant foxtail; format: in vivo, Setaria faberii
Method in brief: as §1

[8] = tested on: morningglory; experiment: Test B pre/postemergence morningglory; format: in vivo, Ipomoea hederacea
Method in brief: as §1

[9] = Postemergence, Rate 125 g/ha, scale 0 to 10, 0 is no effect, 10 is complete control
[10] = Postemergence, Rate 250 g/ha, scale 0 to 10, 0 is no effect, 10 is complete control
[11] = Postemergence, Rate 500 g/ha, scale of 0 to 10 where 0 is no effect and 10 is complete control
[12] = Preemergence, Rate 62 g/ha, scale 0 to 10 (0 no effect, 10 complete control)
[13] = Preemergence, Rate 250 g/ha, scale of 0 to 10 where 0 is no effect and 10 is complete control
[14] = Preemergence, Rate 500 g/ha, scale 0 to 10, 0 is no effect, 10 is complete control
[15] = Rate 62 g/ha, Postemergence, scale of 0 to 10 where 0 is no effect and 10 is complete control
[16] = Preemergence, Rate 125 g/ha, scale of 0 to 10 where 0 is no effect and 10 is complete control
[17] = Preemergence, Rate 250 g/ha, scale 0 to 10, 0 is no effect, 10 is complete control

CC(C)Cn1c(=O)on(C(=O)N(c2ccc(Cl)cc2)C(C)C)c1=O [Compound 417]
10: Crabgrass plant response rating [6, 14] | Giant foxtail plant response rating [7, 17] | Giant foxtail plant response rating [7, 14]
8: Giant foxtail plant response rating [7, 11]
1: Plant response rating, Giant foxtail [7, 10]
3: Plant response rating, Blackgrass [2, 12] | Plant response rating, B. signalgrass [3, 16]
7: Blackgrass plant response rating [2, 13] | B. signalgrass plant response rating [3, 13] | B. signalgrass plant response rating ([3]; Preemergence, Rate 500 g/ha, scale of 0 to 10 where 0 is no effect and 10 is complete control)
6: Bedstraw plant response rating ([1]; Rate 500 g/ha) | Plant response rating, Crabgrass [6, 12]
2: Plant response rating, B. signalgrass [3, 12] | Plant response rating, Crabgrass [6, 10] | Crabgrass plant response rating [6, 11]
0: Plant response rating, Bedstraw ([1]; Rate 125 g/ha) | Plant response rating, Bedstraw ([1]; Rate 250 g/ha) | Bedstraw plant response rating ([1]; Rate 62 g/ha) | Plant response rating, Blackgrass [2, 9] | Plant response rating, Blackgrass [2, 10] | Blackgrass plant response rating [2, 11] | Blackgrass plant response rating [2, 15] | Plant response rating, B. signalgrass [3, 9] | Plant response rating, B. signalgrass [3, 10] | B. signalgrass plant response rating [3, 11] | B. signalgrass plant response rating [3, 15] | Plant response rating, Cocklebur [4, 9] | Plant response rating, Cocklebur [4, 10] | Cocklebur plant response rating [4, 11] | Plant response rating, Cocklebur [4, 12] | Plant response rating, Cocklebur [4, 16] | Cocklebur plant response rating [4, 17] | Cocklebur plant response rating [4, 14] | Cocklebur plant response rating [4, 15] | Plant response rating, Corn [5, 9] | Plant response rating, Corn [5, 10] | Corn plant response rating [5, 11] | Plant response rating, Corn [5, 12] | Plant response rating, Corn [5, 16] | Corn plant response rating [5, 17] | Corn plant response rating [5, 14] | Corn plant response rating [5, 15] | Plant response rating, Crabgrass [6, 9] | Crabgrass plant response rating [6, 15] | Plant response rating, Giant foxtail [7, 9] | Giant foxtail plant response rating [7, 15] | Plant response rating, Morningglory [8, 12] | Plant response rating, Morningglory [8, 16] | Morningglory plant response rating [8, 17] | Morningglory plant response rating [8, 14]
9: Blackgrass plant response rating [2, 14] | Plant response rating, Crabgrass [6, 16] | Crabgrass plant response rating [6, 17] | Plant response rating, Giant foxtail [7, 16] | Plant response rating, Morningglory [8, 10] | Morningglory plant response rating [8, 11]
4: Plant response rating, Giant foxtail [7, 12]
